# Entries after “also recorded” stand apart in the source; their conditions may differ.
# Legend:
# [1] = system: human platelet-mediated thrombosis; assay: In vivo human thrombus formation in the VWF HA1 mice model (laser-induced injury); conditions: pretreated human platelets
# Method: Constitutive or aberrant activation of the BCR signaling cascade has been implicated in the propagation and maintenance of a variety of B cell malignancies. […] J. Haematol. […] In fact, both Tec and BTK play an important role in the regulation of phospholipase Cγ2 (PLCγ2) downstream of the collagen receptor glycoprotein VI (GPVI) in human platelets. […] Biotechnol.
# Injury to the vessel wall of arterioles ([…] diameter) was performed using a pulsed nitrogen dye laser (440 nm, Photonic Instruments) applied through a 20× water-immersion Olympus objective (LUMPlanFl, 0.5 numerical aperature (NA)) of a Zeiss Axiotech vario microscope. […] The extent of thrombus formation was assessed for 2 minutes after injury and the area (μm^2) of coverage determined (Image IQ, Andor Technology).
# The BTK inhibitor-treated human platelets were fluorescently labeled and infused continuously through a catheter inserted into the femoral artery.
# [2] = system: B cell receptor signals (CD69); assay: Whole blood B cell receptor signaling, anti-IgD stimulated CD69 on CD19+ B cells; assay type: cell-based; conditions: whole blood of four healthy donors, 2 hours incubation, anti-human IgD 18 hours
# Method: Blood from four healthy donors was incubated for 2 hours with the compounds shown over a concentration range, and then stimulated with anti-human IgD [10 μg/mL] for 18 hours. The mean fluorescent intensity (MFI) of CD69 (and CD86, data not shown) on gated CD19+ B cells was measured by flow cytometry.
# Raji cells = assay: Antibody-dependent NK cell-mediated cytotoxicity, chromium release assay; assay type: cell-based; conditions: 1 μM; chromium-labeled Raji cells, 4 hours, variable rituximab concentrations, effector:target ratio 25:1; FIG. 134
# [3] = system: GPVI platelet aggregation; assay: GPVI (convulxin-induced) platelet aggregation; assay type: cell-based; conditions: human platelets
# Method: GPVI platelet aggregation was measured for Formula (XVIII) and Formula XX-A (ibrutinib). Blood was obtained from untreated humans, and platelets were purified from […] by centrifugation. Cells were resuspended to a final concentration of 350,000/μL in buffer containing 145 mmol/L NaCl, 10 mmol/L HEPES, 0.5 mmol/L Na2HPO4, 5 mmol/L KCl, 2 mmol/L MgCl2, 1 mmol/L CaCl2, and 0.1% glucose, at pH 7.4. Stock solutions of […] were prepared on the day of experimentation and added to platelet suspensions 5 minutes (37° C., 1200 rpm) before the induction of aggregation. Aggregation was assessed with a Chronolog Lumi-Aggregometer (model 540 VS; Chronolog, Havertown, Pa.) and permitted to proceed for 6 minutes after the addition of agonist. The results are reported as maximum percent change in light transmittance from baseline with platelet buffer used as a reference.
# In FIG. 126, the results of CVX-induced (250 ng/mL) human platelet aggregation results before and 15 minutes after administration of the BTK inhibitors to 6 healthy individuals are shown.
Compound,Effect on human platelet-mediated thrombus formation [1],EC50 [2] [nM],antibody-dependent NK cell-mediated cytotoxicity (percent lysis of tumor cells) (Raji cells),GPVI platelet aggregation [3]
"C=CC(=O)Nc1cccc(Nc2nc(Nc3ccc(OCCOC)cc3)ncc2F)c1 [CC-292, N-(3-((5-fluoro-2-((4-(2-methoxyethoxy)phenyl)amino)pyrimidin-4-yl)amino)phenyl)acrylamide, reference compound]",interfere with thrombus formation; also recorded: showed an effect similar to Formula XX-A (ibrutinib),121,,
"C=CC(=O)N1CCC[C@@H](n2nc(-c3ccc(Oc4ccccc4)cc3)c3c(N)ncnc32)C1 [ibrutinib, reference compound]",,,antagonizes,significantly inhibits GPVI platelet aggregation

# From patent publication US20170224819A1, “Therapeutic Combinations of a BTK Inhibitor, a PI3K Inhibitor, a JAK-2 Inhibitor, and/or a CDK 4/6 Inhibitor” (Acerta Pharma B.V., priority 2014, published 2017)
